Experimental findings from ChEMBL document CHEMBL1140126, “Optimizing natural products by biosynthetic engineering: discovery of nonquinone Hsp90 inhibitors” (J Med Chem, 2008) are described below.

Data set [1] can be described thus: Solubility at room temperature after 6 hrs by HPLC. The class given is physicochemical.
Data set [2] has as its system Mus musculus. In words: Toxicity in NMRI nu/nu mouse assessed as body weight loss at 250 mg/kg/day for 5 days. Conditions: in vivo, 120 h. The class given is organism-based.
Data set [3] can be described thus: Toxicity in NMRI nu/nu mouse assessed as maximum tolerated dose. The class given is organism-based. Conditions: in vivo.
For data set [4], the system named is Mus musculus. In words: Toxicity in nude mouse xenografted with human MAXF401 cells assessed as median body weight loss at 85 mg/kg/day, ip. Conditions: in vivo. Also noted: route intraperitoneal. The class given is organism-based. (Xenograft models place foreign cells or tissue in a host animal.)
Data set [5] is described as follows: Antitumor activity against human MAXF401 cells xenografted in nude mouse assessed as inhibition of tumor growth at 85 mg/kg/day, ip administered alternately for 5 days with 3 days intervals assessed on day 35. Format: functional. To be noted: route intraperitoneal.
Data set [6] can be described thus: Antitumor activity against human MAXF401 cells xenografted in nude mouse assessed as inhibition of tumor growth at 42.5 mg/kg/day, ip administered alternately for 5 days with 3 days intervals assessed on day 21. The class given is functional. Conditions: route intraperitoneal.
Data set [7] is described as follows: Antitumor activity against human MAXF401 cells xenografted in nude mouse assessed as inhibition of tumor growth at 50 mg/kg/day, ip administered alternately for 5 days with 3 days intervals assessed on day 28. The class given is functional. Conditions: route intraperitoneal.
For data set [8], the system named is Mus musculus. Briefly: Toxicity in nude mouse xenografted with human MAXF401 cells assessed as median body weight loss on day 21 at 50 mg/kg/day, ip. To be noted: in vivo. Also on record: route intraperitoneal. The class given is organism-based.
Data set [9] can be described thus: Binding affinity to yeast HSP90. Also noted: species or system Saccharomyces cerevisiae.

≈ marks a conversion by molar mass, not a printed value.

A word on the solubility: it is the dissolved amount per volume that the medium holds. A higher solubility goes with a readily soluble substance. Broadly, the MTD is the highest dose tested that stayed within the study's limit of toxicity. By T/C is commonly meant the ratio of treated to control. The Kd is the free concentration of one partner at which half of the binding sites on the other are occupied at equilibrium, for simple one-to-one binding. Higher therefore signals weaker binding.

On to `CO[C@H]1C[C@H](C)Cc2cc(O)cc(c2)NC(=O)/C(C)=C/CC[C@H](C)[C@@H](OC(N)=O)/C(C)=C/[C@H](C)[C@H]1O`, for which, in data set [1], the solubility at 6 h is more than 200 µM. Also, the figures for the Activity in data set [2], in data set [4] and in data set [8] were 3.8%, 3.2% and 4.4%, respectively. Moreover, the MTD in data set [3] was not below 250 mg/kg. For the same molecule, the T/C in [5] amounted to 45.3%; in data set [6] it was 53.9%; in [7] it was 35.6%.
Take `CO[C@H]1C[C@H](C)[C@@H](O)c2cc(O)cc(c2)NC(=O)/C(C)=C/CC[C@H](C)[C@@H](OC(N)=O)/C(C)=C/[C@H](C)[C@H]1O`: the Kd in [9] was 6 nM.
On to `CO[C@H]1[C@@H](OC)C[C@H](C)[C@@H](OC)C2=CC(=O)C=C(NC(=O)/C(C)=C/C=C\[C@H](C)[C@@H](OC(N)=O)/C(C)=C/[C@@H]1C)C2=O` [MACBECIN], for which the solubility at 6 h in [1] was determined as 81 µM (≈ 45.3 µg/mL).
For `C=CCNC1=C2C[C@@H](C)C[C@H](OC)[C@H](O)[C@@H](C)/C=C(\C)[C@H](OC(N)=O)[C@@H](OC)/C=C\C=C(/C)C(=O)NC(=CC1=O)C2=O` [TANESPIMYCIN], in data set [3], the MTD was determined as 50 mg/kg.
